PubChem BioAssay AID1963976 (Molecular Pharmacology Branch, DTP, NCI, 2024)
“And” between values parts separate entries of the source, which are not always exact repeats. Identical values can stand only once.

Test system: 435261-313-R-J1-PDC tumor spheroid viability
Experiment: Anticancer human tumor 435261-313-R-J1-PDC patient-derived colon adenocarcinoma cell line growth inhibition [PI3K]
Details: spheroids with HUVEC and MSC; for viability, T/C: stronger effect = lower value
Summary of the method: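 Complex 3D spheroids (cancer cells + endothelial HUVEC + mesenchymal stem cells); drug pairs of targeted agent x inavolisib/alpelisib/duvelisib/copanlisib; half-log series from ~Cmax, max 10 microM if Cmax unknown; endpoint viability.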

[1] = curve of first compound, second compound 0.0316 µM
[2] = curve of first compound, second compound 0.1 µM
[3] = curve of first compound, second compound 0.316 µM
[4] = curve of first compound, second compound 1 µM
[5] = curve of first compound, second compound 3.16 µM
[6] = curve of first compound, second compound 10 µM
[7] = second compound 0.0316 µM, first compound 0.0316 µM
[8] = second compound 0.0316 µM, first compound 0.1 µM
[9] = second compound 0.1 µM, first compound 0.0316 µM
[10] = second compound 0.1 µM, first compound 0.1 µM
[11] = second compound 0.316 µM, first compound 0.0316 µM
[12] = second compound 0.316 µM, first compound 0.1 µM
[13] = second compound 1 µM, first compound 0.0316 µM
[14] = second compound 1 µM, first compound 0.1 µM
[15] = second compound 3.16 µM, first compound 0.0316 µM
[16] = second compound 3.16 µM, first compound 0.1 µM
[17] = second compound 10 µM, first compound 0.0316 µM
[18] = second compound 10 µM, first compound 0.1 µM
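Also: spheroids exposed to compounds for 7 days.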

In the case of `CC(C)n1nc(-c2ccc3oc(N)nc3c2)c2c(N)ncnc21` + Cc1nc(NC(=O)N2CCCC2C(N)=O)sc1-c1ccnc(C(C)(C)C(F)(F)F)c1, the IC50 [1] is reported as 26.3 nM, the IC50 [2] is reported as 20.2 nM and the IC50 [3] is reported as 3.58 nM. The IC50 [4] was under 0.316 nM, the IC50 [5] was under 0.316 nM and the IC50 [6] was under 0.316 nM. The viability, T/C (second compound 0.0316 µM, first compound 0.000316 µM) was 83.6%, the viability, T/C (second compound 0.0316 µM, first compound 0.001 µM) was 93% and the viability, T/C (second compound 0.0316 µM, first compound 0.00316 µM) was 76.7%. The viability, T/C (second compound 0.0316 µM, first compound 0.01 µM) was 47.9%, the viability, T/C [7] was 62% and the viability, T/C [8] was 13.6%. For the same compound, the viability, T/C (second compound 0.1 µM, first compound 0.000316 µM) was 76.9%, the viability, T/C (second compound 0.1 µM, first compound 0.001 µM) was 71.1% and the viability, T/C (second compound 0.1 µM, first compound 0.00316 µM) was 94.3%. For the same compound, the viability, T/C (second compound 0.1 µM, first compound 0.01 µM) was 65.6%, the viability, T/C [9] was 38.6% and the viability, T/C [10] was 15.4%. For the same compound, the viability, T/C (second compound 0.316 µM, first compound 0.000316 µM) was 46.4%, the viability, T/C (second compound 0.316 µM, first compound 0.001 µM) was 67.7% and the viability, T/C (second compound 0.316 µM, first compound 0.00316 µM) was 45.8%. The viability, T/C (second compound 0.316 µM, first compound 0.01 µM) was 40%, the viability, T/C [11] was 18.3% and the viability, T/C [12] was 12.8%. For the same compound, the viability, T/C (second compound 1 µM, first compound 0.000316 µM) was 30.6%, the viability, T/C (second compound 1 µM, first compound 0.001 µM) was 30.5% and the viability, T/C (second compound 1 µM, first compound 0.00316 µM) was 30.3%. The viability, T/C (second compound 1 µM, first compound 0.01 µM) was 20.2%, the viability, T/C [13] was 19.6% and the viability, T/C [14] was 9.5%. For the same compound, the viability, T/C (second compound 3.16 µM, first compound 0.000316 µM) was 13.1%, the viability, T/C (second compound 3.16 µM, first compound 0.001 µM) was 23.9% and the viability, T/C (second compound 3.16 µM, first compound 0.00316 µM) was 21.7%. The viability, T/C (second compound 3.16 µM, first compound 0.01 µM) was 19.1%, the viability, T/C [15] was 12.1% and the viability, T/C [16] was 7.83%. It also gave a viability, T/C (second compound 10 µM, first compound 0.000316 µM) of 10.6%, a viability, T/C (second compound 10 µM, first compound 0.001 µM) of 10.1% and a viability, T/C (second compound 10 µM, first compound 0.00316 µM) of 9.88%. The viability, T/C (second compound 10 µM, first compound 0.01 µM) was 8.69%, the viability, T/C [17] was 4.8% and the viability, T/C [18] was 4.03%.
For `C[C@@H](NC(=O)c1ncnc(N)c1Cl)c1ncc(C(=O)Nc2cc(C(F)(F)F)c(Cl)cn2)s1`, the viability, T/C (compound 0.0316 µM) was 133% and 131% and 118%, the viability, T/C (compound 0.1 µM) was 127% and 106% and 111% and the viability, T/C (compound 0.316 µM) was 154% and 79.3% and 153%. The viability, T/C (compound 1 µM) was 151% and 130% and 124%, the viability, T/C (compound 3.16 µM) was 146% and 120% and 129% and the viability, T/C (compound 10 µM) was 120% and 114% and 88.1%. It also gave an IC50 (curve of compound) of over 10000 nM.
Work on `Cn1nccc1Nc1nccc(-c2ccn(C(CO)c3ccc(Cl)c(F)c3)c(=O)c2)n1` (stereo unspecified) + CC(Nc1ncnc2nc[nH]c12)c1cc2cccc(Cl)c2c(=O)n1-c1ccccc1 yielded an IC50 [1] of 737 nM, an IC50 [2] of 416 nM and an IC50 [3] of 362 nM. The IC50 [4] was 424 nM, the IC50 [5] was 254 nM and the IC50 [6] was 68.5 nM. For the same compound, the viability, T/C [7] was 83.5%, the viability, T/C [8] was 64.9% and the viability, T/C (second compound 0.0316 µM, first compound 0.316 µM) was 84%. It also gave a viability, T/C (second compound 0.0316 µM, first compound 1 µM) of 40.1%, a viability, T/C (second compound 0.0316 µM, first compound 3.16 µM) of 28.7% and a viability, T/C (second compound 0.0316 µM, first compound 10 µM) of 24.9%. It also gave a viability, T/C [9] of 75.4%, a viability, T/C [10] of 73.4% and a viability, T/C (second compound 0.1 µM, first compound 0.316 µM) of 46.5%. The viability, T/C (second compound 0.1 µM, first compound 1 µM) was 43.6%, the viability, T/C (second compound 0.1 µM, first compound 3.16 µM) was 25.8% and the viability, T/C (second compound 0.1 µM, first compound 10 µM) was 20.6%. It also gave a viability, T/C [11] of 77.9%, a viability, T/C [12] of 62.7% and a viability, T/C (second compound 0.316 µM, first compound 0.316 µM) of 53.6%. The viability, T/C (second compound 0.316 µM, first compound 1 µM) was 38%, the viability, T/C (second compound 0.316 µM, first compound 3.16 µM) was 28.4% and the viability, T/C (second compound 0.316 µM, first compound 10 µM) was 19.5%. The viability, T/C [13] was 71.5%, the viability, T/C [14] was 66.9% and the viability, T/C (second compound 1 µM, first compound 0.316 µM) was 46.3%. The viability, T/C (second compound 1 µM, first compound 1 µM) was 48.1%, the viability, T/C (second compound 1 µM, first compound 3.16 µM) was 26% and the viability, T/C (second compound 1 µM, first compound 10 µM) was 19.2%. For the same compound, the viability, T/C [15] was 77.1%, the viability, T/C [16] was 67.7% and the viability, T/C (second compound 3.16 µM, first compound 0.316 µM) was 42.1%. For the same compound, the viability, T/C (second compound 3.16 µM, first compound 1 µM) was 32.8%, the viability, T/C (second compound 3.16 µM, first compound 3.16 µM) was 23.5% and the viability, T/C (second compound 3.16 µM, first compound 10 µM) was 12.6%. It also gave a viability, T/C [17] of 58.1%, a viability, T/C [18] of 46.8% and a viability, T/C (second compound 10 µM, first compound 0.316 µM) of 28.8%. It also gave a viability, T/C (second compound 10 µM, first compound 1 µM) of 18.3%, a viability, T/C (second compound 10 µM, first compound 3.16 µM) of 16.7% and a viability, T/C (second compound 10 µM, first compound 10 µM) of 9.7%.
